Results from US12612412B2, “Antiviral heterocyclic compounds” (Enanta Pharmaceuticals, Inc., priority 2021, dated 2026).

Key:
[1] = system: HMPV clinical isolate TN/1501/A1; test: HMPV antiviral assay Method-B (clinical isolate TN/1501/A1 in LLC-MK2 cells, ATP-Lite readout); type: cell-based, Human metapneumovirus (HMPV); conditions: human metapneumovirus, LLC-MK2, 144 h, hMPV WT1501 (clinical isolate TN/1501/A1), 6 days
In short: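 LLC-MK2 cells infected in suspension with TN/1501/A1 at MOI 0.014 in serum-free medium with 2 μg/mL TPCK-trypsin (final), incubated 6 days at 37° C. Compounds tested in duplicate, 10-point 3-fold dilutions from 10 μM. Cell health read by ATP-Lite luminescence, normalised to virus-only and cells-only controls; EC50 by four-parameter logistic fit.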

[2] = system: genotype A, "Long" strain RSV; test: RSV-A assay (CPE protection in Hep-2 cells, ATPlite readout); type: cell-based, Human respiratory syncytial virus (HRSV); conditions: human respiratory syncytial virus, genotype A “Long” strain RSV, MOI 0.1, CPE protection, read-out: Human RSV-A (“Long”)
In short: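 Compound effect on RSV-induced CPE: Hep-2 monolayers, MOI 0.1, duplicate 2-fold titrations, 5-day culture in 10% FBS DMEM. Readout is ATP-based luminescence, normalised to virus-only and no-virus controls, giving EC50.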

SMILES	EC50 [1] [nM]	EC50 [2] [nM]
COc1cc(C(=O)NC[C@](O)(c2cc3c(c(-c4ccc(F)c(Cl)c4F)n2)OC[C@]3(C)C(N)=O)C2(F)CC2)cc2cn(C3CC3)nc12 [Example 752]	< 500	< 200
Cc1cnc2c(OC(F)F)cc(C(=O)NC[C@](O)(c3cc4c(c(-c5ccc(F)c(Cl)c5F)n3)OC[C@]4(C)C(N)=O)C3(F)CC3)cc2c1 [Example 753]	< 500	< 200
COc1cc(C(=O)NC[C@](O)(c2cc3c(c(-c4ccc(F)c(Cl)c4F)n2)OC[C@]3(C)C(N)=O)C2(F)CC2)cc2cn(C(F)F)nc12 [Example 754]	< 500	< 200
C[C@]1(C(N)=O)COc2c1cc([C@@](O)(CNC(=O)c1cc(Cl)c3nn(C4CC4)cc3c1)C1(F)CC1)nc2-c1ccc(F)cc1 [Example 755]	< 500	< 200
COc1cc(C(=O)NC[C@](O)(c2cc3c(c(-c4ccc(F)cc4)n2)OC[C@]3(C)C(N)=O)C2(F)CC2)cc2cn(C3(F)CC3)nc12 [Example 756]	< 500	< 200
C[C@]1(C(N)=O)COc2c1cc([C@@](O)(CNC(=O)c1cc(Cl)c3nn(C4CC4)cc3c1)C1(F)CC1)nc2-c1ccc(F)c(F)c1F [Example 757]	< 500	< 200
COc1cc(C(=O)NC[C@](O)(c2cc3c(c(-c4cc(Cl)c(F)cc4F)n2)OC[C@]3(C)C(N)=O)C2(F)CC2)cc2cn(C3CC3)nc12 [Example 758]	< 500	< 200
C[C@]1(C(N)=O)COc2c1cc([C@@](O)(CNC(=O)c1cc(Cl)c3nn(C4CC4)cc3c1)C1(F)CC1)nc2-c1cc(Cl)c(F)cc1F [Example 759]	< 500	< 200
COc1cc(C(=O)NC[C@](O)(c2cc3c(c(-c4cc(Cl)c(F)cc4F)n2)OC[C@]3(C)C(N)=O)C2(F)CC2)cc2cc(Cl)c(C)nc12 [Example 760]	< 500	< 200
COc1cc(C(=O)NC[C@](O)(c2cc3c(c(-c4cccc(F)c4Cl)n2)OC[C@]3(C)C(N)=O)C(F)(F)F)cc2cn(C3CC3)nc12 [Example 761]	< 500	< 200
COc1cc(C(=O)NC[C@](O)(c2cc3c(c(-c4ccc(F)cc4)n2)OC[C@]3(C)C(N)=O)C2CC2)cc2cc(C)nnc12 [Example 762]	< 500	< 200
COc1cc(C(=O)NC[C@](O)(c2cc3c(c(-c4ccc(F)cc4)n2)OC[C@]3(C)C(N)=O)C2CC2)cc2cc(C3CC3)nnc12 [Example 763]	< 500	< 200
COc1cc(C(=O)NC[C@](O)(c2cc3c(c(-c4ccc5c(c4)OC(F)(F)O5)n2)OC[C@]3(C)C(N)=O)C(F)(F)F)cc2cc(C)nnc12 [Example 764]	< 500	< 200
COc1cc(C(=O)NC[C@](O)(c2cc3c(c(-c4ccc5c(c4)OC(F)(F)O5)n2)OC[C@]3(C)C(N)=O)C(F)(F)F)cc2cc(C3CC3)nnc12 [Example 765]	< 500	< 200
COc1cc(C(=O)NC[C@](O)(c2cc3c(c(-c4cc(Cl)c(F)cc4F)n2)OC[C@]3(C)C(N)=O)C2(F)CC2)cc2cn(C(F)F)nc12 [Example 766]	< 500	< 200
COc1cc(C(=O)NC[C@](O)(c2cc3c(c(-c4cc(Cl)c(F)cc4F)n2)OC[C@]3(C)C(N)=O)C2(F)CC2)cc2cc(Br)cnc12 [Example 767]	< 500	< 200
COc1cc(C(=O)NC[C@](O)(c2cc3c(c(-c4ccc(F)c(Cl)c4F)n2)OC[C@]3(C)C(N)=O)C2(F)CC2)cc2cc(Br)cnc12 [Example 768]	< 500	< 200
Cc1cnc2c(Nc3cnccn3)cc(C(=O)NC[C@](O)(c3cc4c(c(-c5ccc6c(c5)OC(F)(F)O6)n3)OC[C@]4(C)C(N)=O)C3CC3)cc2c1 [Example 773]	< 500	< 200
COc1cc(C(=O)NC[C@](O)(c2cc3c(c(-c4ccc(F)c(F)c4Cl)n2)OC[C@]3(C)C(N)=O)C(F)(F)F)cc2cc(Cl)c(C)nc12 [Example 774]	< 500	< 200
COc1cc(C(=O)NC[C@](O)(c2cc3c(c(-c4ccc(F)c(F)c4Cl)n2)OC[C@]3(C)C(N)=O)C(F)(F)F)cc2cn(C3(F)CC3)nc12 [Example 775]	< 500	< 200
COc1cc(C(=O)NC[C@](O)(c2cc3c(c(-c4ccc(F)c(F)c4Cl)n2)OC[C@]3(C)C(N)=O)C(F)(F)F)cc2cn(C(F)F)nc12 [Example 776]	< 500	< 200
Cc1nc2c(OC3CC3)cc(C(=O)NC[C@](O)(c3cc4c(c(-c5ccc(F)c(F)c5Cl)n3)OC[C@]4(C)C(N)=O)C(F)(F)F)cc2cc1Cl [Example 777]	< 500	< 200
COc1cc(C(=O)NC[C@](O)(c2cc3c(c(-c4ccc(F)c(F)c4Cl)n2)OC[C@]3(C)C(N)=O)C(F)(F)F)cc2cc(Br)cnc12 [Example 778]	< 500	< 200

SMILES	EC50 [1] [nM]	EC50 [2] [nM]
Cc1cnc2c(Cl)cc(C(=O)NC[C@](O)(c3cc4c(c(-c5ccc(F)c(F)c5Cl)n3)OC[C@]4(C)C(N)=O)C(F)(F)F)cc2c1 [Example 779]	< 500	< 200
C[C@]1(C(N)=O)COc2c1cc([C@@](O)(CNC(=O)c1cc(Cl)c3nn(C4CC4)cc3c1)C(F)(F)F)nc2-c1ccc(F)c(F)c1Cl [Example 780]	< 500	< 200
Cc1cnc2c(OC(F)F)cc(C(=O)NC[C@](O)(c3cc4c(c(-c5ccc(F)c(F)c5Cl)n3)OC[C@]4(C)C(N)=O)C(F)(F)F)cc2c1 [Example 781]	< 500	< 200
COc1cc(C(=O)NC[C@](O)(c2cc3c(c(-c4cc(F)c(F)c(Cl)c4)n2)OC[C@]3(C)C(N)=O)C(F)(F)F)cc2cn(C3CC3)nc12 [Example 782]	< 500	< 200
COc1cc(C(=O)NC[C@](O)(c2cc3c(c(-c4cc(F)c(F)c(Cl)c4)n2)OC[C@]3(C)C(N)=O)C(F)(F)F)cc2cn(C(F)F)nc12 [Example 783]	< 500	< 200
COc1cc(C(=O)NC[C@](O)(c2cc3c(c(-c4cc(F)c(F)c(Cl)c4)n2)OC[C@]3(C)C(N)=O)C(F)(F)F)cc2cc(Cl)c(C)nc12 [Example 784]	< 500	< 200
COc1cc(C(=O)NC[C@](O)(c2cc3c(c(-c4cc(F)c(F)c(Cl)c4)n2)OC[C@]3(C)C(N)=O)C(F)(F)F)cc2cc(Br)cnc12 [Example 785]	< 500	< 200
COc1cc(C(=O)NC[C@](O)(c2cc3c(c(-c4cc(F)c(F)c(Cl)c4)n2)OC[C@]3(C)C(N)=O)C2CC2)cc2cc(Cl)c(C)nc12 [Example 786]	< 500	< 200
COc1cc(C(=O)NC[C@](O)(c2cc3c(c(-c4cc(F)c(F)c(Cl)c4)n2)OC[C@]3(C)C(N)=O)C2CC2)cc2cn(C3CC3)nc12 [Example 787]	< 500	< 200
COc1cc(C(=O)NC[C@](O)(c2cc3c(c(-c4cc(F)c(F)c(Cl)c4)n2)OC[C@]3(C)C(N)=O)C2CC2)cc2cn(C(F)F)nc12 [Example 788]	< 500	< 200
COc1cc(C(=O)NC[C@](O)(c2cc3c(c(-c4cc(F)c(F)c(Cl)c4)n2)OC[C@]3(C)C(N)=O)C2CC2)cc2cc(Br)cnc12 [Example 789]	< 500	< 200
C[C@]1(C(N)=O)COc2c1cc([C@@](O)(CNC(=O)c1cc(Cl)c3nn(C4CC4)cc3c1)C1CC1)nc2-c1cc(F)c(F)c(Cl)c1 [Example 790]	< 500	< 200
COc1cc(C(=O)NC[C@](O)(c2cc3c(c(-c4cc(F)c(F)c(Cl)c4)n2)OC[C@]3(C)C(N)=O)C2CC2)cc2cn(C3(F)CC3)nc12 [Example 791]	< 500	< 200
Cc1cnc2c(Cl)cc(C(=O)NC[C@](O)(c3cc4c(c(-c5cc(F)c(F)c(Cl)c5)n3)OC[C@]4(C)C(N)=O)C3CC3)cc2c1 [Example 792]	< 500	< 200
COc1cc(C(=O)NC[C@](O)(c2cc3c(c(-c4ccc(C(F)(F)F)cc4)n2)OC[C@]3(C)C(N)=O)C2CC2)cc2cn(C3CC3)nc12 [Example 793]	< 500	< 200
COc1cc(C(=O)NC[C@](O)(c2cc3c(c(-c4ccc(C(F)(F)F)cc4)n2)OC[C@]3(C)C(N)=O)C2CC2)cc2cn(C3(F)CC3)nc12 [Example 794]	< 500	< 200
C[C@]1(C(N)=O)COc2c1cc([C@@](O)(CNC(=O)c1cc(Cl)c3nn(C4CC4)cc3c1)C1CC1)nc2-c1ccc(C(F)(F)F)cc1 [Example 795]	> 500	< 200
COc1cc(C(=O)NC[C@](O)(c2cc3c(c(-c4ccc(C(F)(F)F)cc4)n2)OC[C@]3(C)C(N)=O)C2CC2)cc2cn(C(F)F)nc12 [Example 796]	< 500	< 200
Cc1cnc2c(Cl)cc(C(=O)NC[C@](O)(c3cc4c(c(-c5ccc(C(F)(F)F)cc5)n3)OC[C@]4(C)C(N)=O)C3CC3)cc2c1 [Example 798]	< 500	< 200
COc1cc(C(=O)NC[C@](O)(c2cc3c(c(-c4ccc(F)c(Br)c4F)n2)OC[C@]3(C)C(N)=O)C2CC2)cc2cn(C3CC3)nc12 [Example 799]	< 500	< 200
C[C@]1(C(N)=O)COc2c1cc([C@@](O)(CNC(=O)c1cc(Cl)c3nn(C4CC4)cc3c1)C1CC1)nc2-c1ccc(F)c(Br)c1F [Example 800]	< 500	< 200
COc1cc(C(=O)NC[C@](O)(c2cc3c(c(-c4ccc(F)c(Br)c4F)n2)OC[C@]3(C)C(N)=O)C2CC2)cc2cn(C(F)F)nc12 [Example 801]	< 500	< 200
